Tests used:
Type in all cases: biochemical
Aurora B = biological target: T1, Aurora B (Homo sapiens, UniProt Q96GD4); assay: Aurora B enzyme inhibition (time-resolved fluorescence, histone H3 peptide); details: 1 mM ATP
T1 construct: Active Aurora B enzyme (recombinant residues 1-344)
Experimental: To determine Aurora B activity of representative compounds of the invention, Active Aurora B enzyme (recombinant residues 1-344) and INCENP (recombinant GST fusion protein (Upstate)) were incubated in wells of a 384 well plate with biotinylated histone H3 peptide residues 1-21 (Upstate), 1 mM ATP, and various concentrations of inhibitors in a HEPES buffer, pH 7.4 containing MgCl2, sodium othrovanadate, and Triton X-100. After 1 hour, the reaction was stopped with EDTA and anti-phospho-histone H3 Europium Cryptate (Cis-Bio) and SA-APC (Phycolink, Prozyme) were added to detect the phosphopeptide. The amount of phosphorylation was determined by the time-resolved fluorescence ratio of signals at 665 nm and 615 nm. The IC50's were calculated by an exponential fit of the inhibition values with the inhibitor concentrations using Assay Explorer software.

Aurora A = biological target: T2, Aurora A (Homo sapiens, UniProt O14965); assay: Aurora A enzyme inhibition (time-resolved fluorescence, STK substrate-2); details: 1 mM ATP
T2 sequence (O14965 1-403): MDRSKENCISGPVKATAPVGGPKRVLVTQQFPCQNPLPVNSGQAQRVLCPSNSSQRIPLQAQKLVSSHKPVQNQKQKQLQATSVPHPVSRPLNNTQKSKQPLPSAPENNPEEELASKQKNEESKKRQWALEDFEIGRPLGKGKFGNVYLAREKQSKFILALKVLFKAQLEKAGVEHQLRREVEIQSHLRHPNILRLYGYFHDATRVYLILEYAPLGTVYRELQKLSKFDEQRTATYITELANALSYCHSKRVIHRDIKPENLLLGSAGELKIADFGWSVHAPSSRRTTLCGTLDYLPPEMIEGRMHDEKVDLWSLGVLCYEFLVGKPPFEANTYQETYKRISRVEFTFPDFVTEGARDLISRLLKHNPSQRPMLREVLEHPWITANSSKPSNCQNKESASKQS
Experimental: To determine Aurora A and C activity of representative compounds of the invention, Active Aurora A or C enzyme was incubated in wells of a 384 well plate with biotinylated STK substrate-2 (Upstate), 1 mM ATP, and various concentrations of inhibitors in a Hepes buffer, pH 7.4 containing MgCl2, sodium othrovanadate, and Triton X-100. After 1 hour, the reaction was stopped with EDTA and anti-phospho-STK antibody Europium Cryptate (Upstate) and SA-XL665 (Upstate) were added to detect the phosphopeptide. The amount of phosphorylation was determined by the time-resolved fluorescence ratio of signals at 665 nm and 615 nm. The IC50s were calculated by an exponential fit of the inhibition values with the inhibitor concentrations using Assay Explorer software.

KDR = KDR (Homo sapiens, UniProt P35968); assay: KDR HTRF in vitro kinase assay; parameters: purified enzyme (His6-KDR 789-1354, MW 63 kD); His6 (N); details: 1 mM ATP; read-out: KDR enzyme inhibition data (Ki)
KDR, sequence (P35968 789-1354): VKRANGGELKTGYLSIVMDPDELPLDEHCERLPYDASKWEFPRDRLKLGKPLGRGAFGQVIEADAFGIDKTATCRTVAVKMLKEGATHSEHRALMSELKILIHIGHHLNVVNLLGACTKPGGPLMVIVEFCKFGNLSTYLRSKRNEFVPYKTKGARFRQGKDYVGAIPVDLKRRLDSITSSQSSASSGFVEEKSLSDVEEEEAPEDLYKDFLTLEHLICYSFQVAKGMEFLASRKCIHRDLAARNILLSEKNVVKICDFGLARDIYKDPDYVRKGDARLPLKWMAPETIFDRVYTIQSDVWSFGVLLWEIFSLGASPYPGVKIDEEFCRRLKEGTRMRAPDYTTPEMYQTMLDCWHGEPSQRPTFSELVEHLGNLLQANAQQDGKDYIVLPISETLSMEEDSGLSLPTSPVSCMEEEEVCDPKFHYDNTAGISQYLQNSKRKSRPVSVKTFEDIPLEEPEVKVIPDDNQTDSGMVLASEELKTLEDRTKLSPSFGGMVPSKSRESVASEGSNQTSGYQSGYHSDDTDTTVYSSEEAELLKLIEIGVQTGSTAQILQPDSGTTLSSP
Experimental: To determine the activity of the various kinases, a homogenous time-resolved fluorescence (HTRF) in vitro kinase assay was used. (Mathis, G., HTRF® Technology. J Biomol Screen, 1999. 4(6): p. 309-314; Alfred J. Kolb, Paul V. Kaplita, David J. Hayes, Young-Whan Park, Christine Pernell, John S. Major and Gerard Mathis, Drug Discovery Today, 1998, 3, 333-342.)
For example for KDR, 7 ng/well of purified enzyme (His6-KDR 789-1354, MW 63 kD) was mixed with 0.5 μM N-biotinylated substrate (Biotin-Ahx-AEEEYFFLA-amide (SEQ. ID. 1)), various concentrations of inhibitor in reaction buffer (50 mM HEPES, pH 7.1, 10 mM MgCl2, 2 mM MnCl2, 0.1% BSA and 1 mM DTT, 40 L final volume), ATP (1 mM final conc.) in a black 384-well plate. After 60 minutes incubation at room temperature, the reaction was quenched by addition of a buffered EDTA solution (final approximate concentrations: 30 mM EDTA, 0.1% BSA, 0.1% Triton X-100 and 0.24M KF) and a solution of revelation agents (to give 0.084 ng/well streptavidin-XL-665 (Cis-Bio) and 6.5 ng/well antiphsophotyrosine mAb PT66-K Europium kryptate) was added to the reaction mixture. The quenched reaction was allowed to stand at room temperature for 3 hours and was then read in a time-resolved fluorescence detector (InVision, Perkin-Elmer) at 620 nm and 665 nm sequentially with excitation. The ratio between the signal of 620 nm and 665 nm was used in the calculation of the IC50.

Measured: Ki

T1 sequence (Q96GD4 whole entry, the tested form may be a part): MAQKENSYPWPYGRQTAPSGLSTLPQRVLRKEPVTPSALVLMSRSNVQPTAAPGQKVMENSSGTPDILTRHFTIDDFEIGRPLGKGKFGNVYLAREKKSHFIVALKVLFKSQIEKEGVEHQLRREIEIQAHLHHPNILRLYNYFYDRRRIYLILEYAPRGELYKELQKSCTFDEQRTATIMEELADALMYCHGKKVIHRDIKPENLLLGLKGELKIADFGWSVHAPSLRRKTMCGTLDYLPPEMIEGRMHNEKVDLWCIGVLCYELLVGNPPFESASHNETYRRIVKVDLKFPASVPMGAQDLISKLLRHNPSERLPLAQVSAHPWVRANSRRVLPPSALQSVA
T1 sequence (Q9NQS7 826-918 partner limits assumed): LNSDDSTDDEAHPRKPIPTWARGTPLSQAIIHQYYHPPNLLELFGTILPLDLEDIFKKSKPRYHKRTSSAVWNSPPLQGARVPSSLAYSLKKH

CCn1cc(Nc2ncc(Cl)c(N[C@H]3[C@@H](C(N)=O)[C@@H]4C=C[C@H]3C4)n2)cn1 [Example 42, (1S,2S,3R,4R)-3-({5-chloro-2-[(1-ethyl-1H-pyrazol-4-yl)amino]pyrimidin-4-yl}amino)bicyclo[2.2.1]hept-5-ene-2-carboxamide]
< 100 nM: all assays above

Cn1cc(Nc2ncc(Cl)c(N[C@@H]3CCC[C@@H]3C(N)=O)n2)cn1.Cn1cc(Nc2ncc(Cl)c(N[C@H]3CCC[C@H]3C(N)=O)n2)cn1 (mixture of isomers) [Example 43, (1S,2R)-2-({5-chloro-2-[(1-methyl-1H-pyrazol-4-yl)amino]pyrimidin-4-yl}amino)cyclopentanecarboxamide and (1R,2S)-2-({5-chloro-2-[(1-methyl-1H-pyrazol-4-yl)amino]pyrimidin-4-yl}amino)cyclopentanecarboxamide]
< 100 nM: all assays above

NC(=O)[C@@H]1[C@H](Nc2nc(Nc3cnn(CCN4CCCC4)c3)ncc2F)[C@H]2C=C[C@@H]1C2.NC(=O)[C@H]1[C@@H](Nc2nc(Nc3cnn(CCN4CCCC4)c3)ncc2F)[C@@H]2C=C[C@H]1C2 (mixture of isomers) [Example 45, (1S,2S,3R,4R)-3-[(5-fluoro-2-{[1-(2-pyrrolidin-1-ylethyl)-1H-pyrazol-4-yl]amino}pyrimidin-4-yl)amino]bicyclo[2.2.1]hept-5-ene-2-carboxamide and (1R,2R,3S,4S)-3-[(5-fluoro-2-{[1-(2-pyrrolidin-1-ylethyl)-1H-pyrazol-4-yl]amino}pyrimidin-4-yl)amino]bicyclo[2.2.1]hept-5-ene-2-carboxamide]
< 100 nM: all assays above

CCn1cc(Nc2ncc(C(F)(F)F)c(N[C@@H]3[C@H](C(=O)NC4CC4)[C@H]4C=C[C@@H]3C4)n2)cn1.CCn1cc(Nc2ncc(C(F)(F)F)c(N[C@H]3[C@@H](C(=O)NC4CC4)[C@@H]4C=C[C@H]3C4)n2)cn1 (mixture of isomers) [Example 71, (1S,2S,3R,4R)—N-cyclopropyl-3-{[2-[(1-ethyl-1H-pyrazol-4-yl)amino]-5-(trifluoromethyl)pyrimidin-4-yl]amino}bicyclo[2.2.1]hept-5-ene-2-carboxamide and (1R,2R,3S,4S)—N-cyclopropyl-3-{[2-[(1-ethyl-1H-pyrazol-4-yl)amino]-5-(trifluoromethyl)pyrimidin-4-yl]amino}bicyclo[2.2.1]hept-5-ene-2-carboxamide]
< 100 nM: all assays above

NC(=O)[C@@H]1[C@H](Nc2nc(Nc3cnn([C@H]4CCCNC4)c3)ncc2Cl)[C@H]2C=C[C@@H]1C2 [Example 83, (1S,2S,3R,4R)-3-{[5-chloro-2-({1-[(3S)-piperidin-3-yl]-1H-pyrazol-4-yl}amino)pyrimidin-4-yl]amino}bicyclo[2.2.1]hept-5-ene-2-carboxamide]
< 100 nM: all assays above

CN(C)C(=O)Cn1cc(Nc2ncc(Cl)c(N[C@@H]3[C@H]4CC[C@H](C4)[C@@H]3C(N)=O)n2)cn1.CN(C)C(=O)Cn1cc(Nc2ncc(Cl)c(N[C@H]3[C@@H]4CC[C@@H](C4)[C@H]3C(N)=O)n2)cn1 (mixture of isomers) [Example 58, (1R,2S,3R,4S)-3-{[5-chloro-2-({1-[2-(dimethylamino)-2-oxoethyl]-1H-pyrazol-4-yl}amino)pyrimidin-4-yl]amino}bicyclo[2.2.1]heptane-2-carboxamide and (1S,2R,3S,4R)-3-{[5-chloro-2-({1-[2-(dimethylamino)-2-oxoethyl]-1H-pyrazol-4-yl}amino)pyrimidin-4-yl]amino}bicyclo[2.2.1]heptane-2-carboxamide]
< 100 nM: all assays above

NC(=O)[C@@H]1[C@H](Nc2nc(Nc3cnn(C4CNC4)c3)ncc2Cl)[C@H]2C=C[C@@H]1C2 [Example 81, (1S,2S,3R,4R)-3-({2-[(1-azetidin-3-yl-1H-pyrazol-4-yl)amino]-5-chloropyrimidin-4-yl}amino)bicyclo[2.2.1]hept-5-ene-2-carboxamide]
< 100 nM: all assays above

CNC(=O)[C@@H]1[C@H](Nc2nc(Nc3cnn(C)c3)ncc2Br)[C@H]2C=C[C@@H]1C2.CNC(=O)[C@H]1[C@@H](Nc2nc(Nc3cnn(C)c3)ncc2Br)[C@@H]2C=C[C@H]1C2 (mixture of isomers) [Example 48, (1S,2S,3R,4R)-3-({5-bromo-2-[(1-methyl-1H-pyrazol-4-yl)amino]pyrimidin-4-yl}amino)-N-methylbicyclo[2.2.1]hept-5-ene-2-carboxamide and (1R,2R,3S,4S)-3-({5-bromo-2-[(1-methyl-1H-pyrazol-4-yl)amino]pyrimidin-4-yl}amino)-N-methylbicyclo[2.2.1]hept-5-ene-2-carboxamide]
< 100 nM: all assays above

NC(=O)Cn1cc(Nc2ncc(Cl)c(N[C@H]3[C@@H](C(N)=O)[C@@H]4C=C[C@H]3C4)n2)cn1 [Example 74, (1S,2S,3R,4R)-3-[(2-{[1-(2-amino-2-oxoethyl)-1H-pyrazol-4-yl]amino}-5-chloropyrimidin-4-yl)amino]bicyclo[2.2.1]hept-5-ene-2-carboxamide]
< 100 nM: all assays above

CC(C)OC(=O)Cn1cc(Nc2ncc(Br)c(N[C@@H]3[C@H](C(N)=O)[C@H]4C=C[C@@H]3C4)n2)cn1.CC(C)OC(=O)Cn1cc(Nc2ncc(Br)c(N[C@H]3[C@@H](C(N)=O)[C@@H]4C=C[C@H]3C4)n2)cn1 (mixture of isomers) [Example 55, isopropyl{4-[(4-{[(1S,2S,3R,4R)-3-(aminocarbonyl)bicyclo[2.2.1]hept-5-ene-2-yl]amino}-5-bromopyrimidin-2-yl)amino]-1H-pyrazol-1-yl}acetate and isopropyl{4-[(4-{[(1R,2R,3S,4S)-3-(aminocarbonyl)bicyclo[2.2.1]hept-5-ene-2-yl]amino}-5-bromopyrimidin-2-yl)amino]-1H-pyrazol-1-yl}acetate]
< 100 nM: all assays above

CCn1cc(Nc2ncc(C(F)(F)F)c(N[C@@H]3[C@H]4CC[C@H](C4)[C@@H]3C(N)=O)n2)cn1 [Example 80, (1R,2S,3R,4S)-3-{[2-[(1-ethyl-1H-pyrazol-4-yl)amino]-5-(trifluoromethyl)pyrimidin-4-yl]amino}bicyclo[2.2.1]heptane-2-carboxamide]
< 100 nM: all assays above
